Experimental data from US12138273B2 (Propella Therapeutics, Inc., priority 2019, dated 2024).

Key:
[1] = dog, in vivo
Excerpt: An additional study was done using dogs as the animal model instead of rats.

[2] = Beagle, dog, in vivo

% F ([1]; male) [%]	measurable blood levels out to ([1]; male) [h]	AUCINF/Dose ([1]; male, im)	mean AUCINF following IM administration, corrected for dose and time units [2] [ng·h/mL]	SMILES	irritation at the injection site [1]
61.7	504	329		CC(=O)O[C@H]1CC[C@@]2(C)C(=CC[C@@H]3[C@@H]2CC[C@]2(C)C(c4cccnc4)=CC[C@@H]32)C1 [abiraterone acetate]	irritating to the dogs at the injection site
			105	C[C@]12CC[C@H](O)CC1=CC[C@@H]1[C@@H]2CC[C@]2(C)C(c3cccnc3)=CC[C@@H]12 [abiraterone, (3β)-17-(pyridin-3-yl) androsta-5, 16-dien-3-ol]	
